Reference: PubChem BioAssay AID449750 (Broad Institute, 2010)
Active and inactive are the calls of the source. How the calls were made is not given here.

experiment: non-covalent RecA intein splicing inhibitors, dose response, biochemical, cell-free, fluorescence, secondary screen (AID 449750)

| Structure (SMILES) | AC50 |
| --- | --- |
| Cc1ccc(-c2nnc(Sc3nc4ccccc4o3)c3ccccc23)cc1 | 4.13 µM |
| CCOc1cc(CNc2ccc3cn[nH]c3c2)ccc1OC | 12.7 µM |
| Cc1ccc(NC(=O)c2cnc(SCC(=O)NCC3CCCO3)n(C)c2=O)cc1 (stereo unspecified) | > 38 µM (inactive) |
| O=C(Cc1cc(=O)[nH][nH]1)N/N=C/c1ccccc1Cl | 15.8 µM |
| Cc1ccc(C2CC(c3cccs3)=NN2C(=O)CSC2=NCCS2)cc1 (stereo unspecified) | 9.96 µM |
| CC(=O)Oc1ccc2ccccc2c1C(NC(=O)Cc1ccccc1)c1ccc(Cl)cc1 (stereo unspecified) | 4.04 µM |
| Nc1scc2c(C(=O)N/N=C/c3ccc(Cl)cc3)nn(-c3ccccc3)c(=O)c12 | 28.1 µM |
| O=c1[nH]c(Nc2ccccn2)cc2ccccc12 | > 38 µM (inactive) |
| Cc1ccc2c(c1)Oc1ccc(NC(=O)CCl)cc1C(=O)N2 | 6.94 µM |
| COCc1[nH]nc2c1C(c1ccccc1F)C(C#N)=C(N)O2 (stereo unspecified) | > 38 µM (inactive) |
| O=C(O)COc1ccc(/C=C2/SC(=S)N(Cc3ccccc3)C2=O)cc1 | 31.6 µM |
| O=C(c1cccs1)[C@@H]1[C@@H]2C(=O)N(Cc3ccc4c(c3)OCO4)C(=O)[C@@H]2C2c3ccccc3C=CN21 (stereo partly specified) | 3.81 µM |
| COC(CN(C(=O)CCl)C(C(=O)NC1CCCC(C)C1C)c1ccc(C)cc1)OC (stereo unspecified) | 10.9 µM |
| O=[N+]([O-])c1ccc(Oc2cccc(Br)c2)c2ccncc12 | 13.1 µM |
| CC(=O)NCCn1c(SCc2ccccc2C)nc2ccccc2c1=O | > 38 µM (inactive) |
| COc1ccc(COC(=O)N/N=C(\C)CC(=O)Nc2ccc(Cl)cn2)cc1 | > 38 µM (inactive) |
| CC(C)Cn1c(C(C)C)nc([N+](=O)[O-])c1S(=O)(=O)c1ccc(F)cc1 | > 38 µM (inactive) |
| COc1ccc(Nc2nc(N3CCCCC3)nc3ccccc23)c(OC)c1 | > 38 µM (inactive) |
| CS(=O)(=O)C1=NN2C(=N)/C(=C\c3ccc(OC(=O)c4ccco4)cc3)C(=O)N=C2S1 | > 38 µM (inactive) |
| O=C(Oc1ccc(Br)cc1C(=S)N1CCCCC1)c1cc([N+](=O)[O-])cc([N+](=O)[O-])c1 | > 38 µM (inactive) |
| CCC(C)Nc1nc(Cl)nc(N(C#N)CN2C(=O)c3ccccc3S2(=O)=O)n1 (stereo unspecified) | > 38 µM (inactive) |
| Cc1ccc(C(=O)c2coc3cc([N+](=O)[O-])c(O)c([N+](=O)[O-])c23)cc1 | > 38 µM (inactive) |
| CS(=O)(=O)N1CCC(Oc2ccccc2C(=O)N2CCCCC2CO)CC1 (stereo unspecified) | > 38 µM (inactive) |
| O=C(CCN1C(=O)/C(=C\c2ccccc2F)SC1=S)Nc1ccc(C(=O)O)c(O)c1 | 14.7 µM |
| Nc1nc(CCl)nc(Nc2ccc3ccccc3c2)n1 | 15.7 µM |
| CCCCCn1c(NC(=O)c2ccco2)c(S(=O)(=O)c2ccc(C)cc2)c2nc3ccccc3nc21 | > 38 µM (inactive) |

| Structure (SMILES) | AC50 |
| --- | --- |
| CC(=O)N1C(=O)C2(C(C#N)=C(N)Oc3c2c(C)nn3-c2ccccc2)c2ccccc21 (stereo unspecified) | 28 µM |
| CCOc1cc(C(c2c(C)[nH][nH]c2=O)c2c(C)[nH][nH]c2=O)cc([N+](=O)[O-])c1O | 13.1 µM |
| O=C(Cc1ccccc1)c1c[nH]c(C(=O)C(Cl)(Cl)Cl)c1 | 38.1 µM |
| Cc1[nH]c2ccccc2c1C(C#N)(C#N)C1C(=O)c2ccccc2C1=O | 2.58 µM |
| COC(=O)CC1(c2cccc3ccccc23)C(=O)c2ccccc2C1=O | 19.1 µM |
| COc1ccc(NC(=O)CSc2c3c(nc4cc(Cl)ccc24)CCCC3)cc1OC | 31.7 µM |
| COc1cc(/C=N\NC(=O)c2ccccc2F)ccc1Oc1ccc([N+](=O)[O-])cn1 | > 38 µM (inactive) |
| O=c1[nH]c(Nc2ccc(F)cc2)cc2ccccc12 | 2.58 µM |
| CC(=O)NC1C(=O)N(CCN2CCOCC2)c2ccc(Br)cc21 (stereo unspecified) | 18.1 µM |
| Cc1ccc(-n2nc(C)c3c2OC(N)=C(C#N)C3c2cccs2)cc1 (stereo unspecified) | 21.1 µM |
| O=C(/C=C/c1ccccc1)c1ccc2c3c(cccc13)CC2 | 3.7 µM |
| O=C(CCl)Nc1cccc(Oc2ccccc2)c1 | 6.15 µM |
| CCOc1ccc(/C=C2\SC(=S)N(CCC(=O)Nc3ccccc3C(=O)O)C2=O)cc1 | 18.3 µM |
| CCCOC(=O)c1ccc(OC(=O)c2ccco2)cc1 | > 38 µM (inactive) |
| O=C1C=C(N(CCO)Cc2ccccc2)c2ccccc2C1=O | 4.49 µM |
| O=C1C=C(Nc2ccccc2C(=O)O)c2ccccc2C1=O | 6.57 µM |
| O=C1C(Cl)=C(NCCN2CCCCC2)C(=O)c2ccccc21 | 13.3 µM |
| Cc1cccc(CS(=O)(=O)c2ncc(Cl)c(C(=O)Nc3c(C)cccc3C)n2)c1 | > 38 µM (inactive) |
| CNCc1ccccc1Sc1ccc(O)c(O)c1 | > 38 µM (inactive) |
| O=C(c1ccc(Cl)cc1)c1c[nH]c(C(=O)C(Cl)(Cl)Cl)c1 | 16.6 µM |
| Cc1cc(-c2ccccc2)nc2cc(C(=O)N(Cc3ccccc3)Cc3ccccc3)nn12 | 18.8 µM |
| Cc1c(C)n(O)c2ccc3nonc3c12 | 26.8 µM |
| Oc1ccc(N=Cc2ccc(O)c(O)c2)cc1 | 17.6 µM |
| COc1cc(/C=C(\C#N)C(=O)Nc2ccc3c(c2)OCCO3)ccc1O | > 38 µM (inactive) |
| COc1ccc(OC)c(C2C(C#N)=C(N)Oc3c2c(C)nn3-c2cccc(Cl)c2)c1 (stereo unspecified) | 30 µM |
| COc1ccc(-c2cc(C#N)nc(Cl)n2)cc1 | > 38 µM (inactive) |

| Structure (SMILES) | AC50 |
| --- | --- |
| COc1cc(C(=O)c2nccc3cc(OC)c(OC)cc23)c([N+](=O)[O-])cc1OC | 18.3 µM |
| Cc1cc2nc3ccc(=[N+](C)C)cc-3sc2cc1N | 13.1 µM |
| Cc1ccc(-n2nc(C)c3c2OC(N)=C(C#N)C3c2ccc(F)cc2)cc1 (stereo unspecified) | 26.5 µM |
| Cc1cc(O)ccc1Nc1nc(-c2cccs2)cs1 | 31.7 µM |
| O=C1/C(=C/Nc2cccc([N+](=O)[O-])c2)CCc2ccccc21 | > 38 µM (inactive) |
| Cc1cccc(Cn2ncc(Cl)c(Cl)c2=O)c1 | 18 µM |
| O=C1c2ccccc2C(=O)c2c1ncn2-c1ccccc1 | > 38 µM (inactive) |
| CCOC(=O)c1nn(-c2ccc(C)cc2)c(=O)c2c(N)scc12 | > 38 µM (inactive) |
| Cc1[nH]n(-c2ccccc2)c(=O)c1/C=N/NC(=O)c1ccc(O)cc1O | > 38 µM (inactive) |
| Cn1ccnc1Sc1cc(NCCCO)c([N+](=O)[O-])c2nonc12 | > 38 µM (inactive) |
| CC(c1ccc(O)cc1)(c1ccc(O)cc1)c1ccc(CCBr)cc1 | 11.8 µM |
| COC(=O)c1cccc(-c2ccc(C(c3c(C)[nH][nH]c3=O)c3c(C)[nH][nH]c3=O)o2)c1 | 3.29 µM |
| CC1(C)Cc2ccccc2C2=NNC(=O)C2=N1 | 11 µM |
| COC(=O)C1=NN(C(C)=O)C2(CC(=O)N(c3cc(C)cc(C)c3)C2=O)C1 (stereo unspecified) | > 38 µM (inactive) |
| CC(=O)c1c(C)nc(-c2ccc(Cl)cc2)nc1N=CN(C)C | > 38 µM (inactive) |
| CC1=NN(c2ccc(F)cc2)C(=O)C1C(c1cccc(O)c1)c1c(C)[nH]n(-c2ccc(F)cc2)c1=O (stereo unspecified) | 2.89 µM |
| N#CC1=C(N)Oc2n[nH]c(-c3cccs3)c2C1c1ccccc1C(=O)O (stereo unspecified) | 20.9 µM |
| CC(=O)c1cc(O)c2ccccc2c1O | 13.3 µM |
| Cc1[nH][nH]c(=O)c1C(c1ccc(N(C)C)c(Br)c1)c1c(C)[nH][nH]c1=O | 38.7 µM |
| C#CCOc1ccc(/C=C2/C(=O)N(c3cccc(C(=O)O)c3)N=C2C)cc1OC | 2.79 µM |
| CCc1ccc(/C=C/C(=O)C2C(=O)c3ccccc3C2=O)cc1 | 7.06 µM |
| CN1C(=O)/C(=N\OC(=O)c2cccc3ccccc23)c2ccccc21 | > 38 µM (inactive) |
| CC(C)[n+]1ccn(C2=C([O-])c3ccccc3C(=O)/C2=N\S(=O)(=O)c2ccccc2)c1 | 8.08 µM |
| CCOc1ccc(S(=O)(=O)NCc2cccnc2)cc1C | > 38 µM (inactive) |
